Legend:
Akt = Akt activation assay (Phospho-AKT (Ser473) antibody staining) in U2OS GFP-FoxO3a H212R reporter cells; type: cell-based; conditions: Homo sapiens, 0.5 h, serum starved overnight, 30 minutes compound treatment, total cellular intensity of Phospho-Akt (Ser473) antibody staining, AC50 = concentration that results in 50% activation or inhibition
Procedure, shortened: (§1)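 Serum-starved (overnight) cells treated with compounds at various doses for 30 min, then fixed in 4% paraformaldehyde and stained overnight at 4 °C for pAkt S473 with Hoechst nuclear counterstain; high-content imaging. FoxO3a readout: nuclear/cytosolic GFP ratio (%); Akt readout: total cellular pAkt intensity (%); DMSO = 0% activity.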

FoxO3a = FoxO3a inhibition assay (GFP-FoxO3a nuclear to cytoplasmic translocation) in U2OS GFP-FoxO3a H212R reporter cells; type: cell-based; conditions: Homo sapiens, 0.5 h, serum starved overnight, 30 minutes compound treatment, ratio of nuclear to cytosolic GFP intensity, AC50 = concentration that results in 50% activation or inhibition, read-out: FoxO AC50
Procedure, shortened: as §1

Structure (SMILES): Cc1nc(C(N)=O)nn1-c1ccc(Cc2ccc(-c3ccc(CN4CCC(CN(C)C)CC4)cc3)cc2)cc1 [Example 39-1, 1-(4-((4′-((4-((dimethylamino)methyl)piperidin-1-yl)methyl)-[1,1′-biphenyl]-4-yl)methyl)phenyl)-5-methyl-1H-1,2,4-triazole-3-carboxamide]
- AC50 (Akt): 615 nM
- AC50 (FoxO3a): 195 nM

Structure (SMILES): Cc1nc(C(N)=O)nn1-c1ccc(C(C)(C)c2ccc(-c3ccc(C#N)nc3)cc2)cc1 [Example 13-10]
- AC50 (Akt): 1180 nM
- AC50 (FoxO3a): 489 nM

Structure (SMILES): Cc1nc(C(N)=O)nn1-c1ccc(Cc2ccc(-c3ccc(S(=O)(=O)NCC(C)(C)O)cc3)cc2)cc1 [Example 50, 1-(4-((4′-(N-(2-hydroxy-2-methylpropyl)sulfamoyl)-[1,1′-biphenyl]-4-yl)methyl)phenyl)-5-methyl-1H-1,2,4-triazole-3-carboxamide]
- AC50 (Akt): 117 nM
- AC50 (FoxO3a): 36 nM

Structure (SMILES): Cc1nc(C(N)=O)nn1-c1ccc(C(C)(C)c2ccc(-c3ccc(N4CCOCC4)nc3)cc2)cc1 [Example 13-15]
- AC50 (Akt): 493 nM
- AC50 (FoxO3a): 114 nM

Structure (SMILES): Cc1nc(C(N)=O)nn1-c1ccc(C(C)(C)c2ccc(-c3cnc4c(c3)OCCN4C)cc2)cc1 [Example 13-11]
- AC50 (Akt): 1000 nM
- AC50 (FoxO3a): 416 nM

Reference: patent US10633350B2, “Diphenyl derivatives and uses thereof” (NOVARTIS AG, priority 2017, dated 2020)
